According to patent US5637584A, “Solvate of olanzapine” (Eli Lilly and Company, priority 1995, dated 1997):

What was measured:
[1] = system: apomorphine-induced hypothermia; assay: apomorphine-induced hypothermia in mice; assay type: in vivo
Source text: (§1) The Form I olanzapine prepared by the process of this invention has useful central nervous system activity. […] For example, the anhydrous Form I compound has been assessed in a number of standard behavior tests predictive of antipsychotic activity. The claimed compound antagonised apomorphine-induced climbing behavior and hypothermia in mice. See Moore, N. A. et al Psychopharmacology 94 (2), 263-266 (1988).

[2] = system: apomorphine-induced climbing behavior; assay: apomorphine-induced climbing behavior in mice; assay type: in vivo
Source text: as §1

[3] = system: conditioned avoidance response; assay: conditioned avoidance response in rats; assay type: in vivo
[4] = system: 5-HT2B receptor; assay: 5-HT2B receptor activity
[5] = system: catalepsy; assay: induction of catalepsy; assay type: in vivo; conditions: compared with doses required to block conditioned avoidance response
[6] = stability of the anhydrous polymorph; assay type: physicochemical; conditions: suitability for pharmaceutical formulations
[7] = detection of radiolabelled compound in saliva; assay type: in vivo
Experimental: The anhydrous Form I 2-methyl-4-(4-methyl-1-piperazinyl)-10H-thieno-[2,3-b][1,5]benzodiazepine compound is effective over a wide dosage range, the actual dose administered being dependent on the condition being treated. For example, in the treatment of adult humans, dosages of from 0.25 to 30 mg, preferably from 1 to 20 mg, per day may be used. A once a day dosage is normally sufficient, although divided doses may be administered. For treatment of central nervous system disorders, a dose range of from 1 to 30 mg, preferably 2.5 to 20 mg per day is suitable.

Compound | antagonism of apomorphine-induced hypothermia [1] | antagonism of apomorphine-induced climbing behavior [2] | inhibition of conditioned avoidance response [3] | 5-HT2B receptor activity [4] | induction of catalepsy [5] | stability of crystal form [6] | detection in saliva [7]
Cc1cc2c(s1)Nc1ccccc1N=C2N1CCN(C)CC1 [anhydrous Form I olanzapine, 2-methyl-4-(4-methyl-1-piperazinyl)-10H-thieno[2,3-b][1,5]benzodiazepine] | antagonised | antagonised | inhibits | 5-HT2B receptor activity | induces cataleptsy only at higher doses | stable | –
Cc1cc2c(s1)Nc1ccccc1N=C2N1CCN(C)CC1 [2-methyl-4-(4-methyl-1-piperazinyl)-10H-thieno-[2,3b][1,5]benzodiazepine] | – | – | – | – | – | – | can be detected in the saliva
Cc1cc2c(s1)Nc1ccccc1N=C2N1CCN(C)CC1 [anhydrous Form II 2-methyl-4-(4-methyl-1-piperazinyl)-10H-th] [2-methyl-4-(4-methyl-1-piperazinyl)-10H-thieno[2,3-b][1,5]benzodiazepine] | – | – | – | – | – | metastable | –
